The test system of data set [1] is P. falciparum clone FCR3 (chloroquine resistant) erythrocytic stages. Put plainly: In vitro assay for P. falciparum blood stages inhibition, clone FCR3. Type of data set: cell-based. The method, then:
(§1) P. falciparum clone 3D7 (chloroquine sensitive) and clone FCR3 (chloroquine resistant) erythrocytic stages were cultured as described, and drug antiplasmodial activity was assessed by the standard method with minor modifications. Briefly, the compounds tazopsine and NCP-tazopsine solubilized in DMSO were further diluted in RPMI before adding to parasite cultures (0.5% parasitemia, mainly young trophozoites, and 1.8% final hematocrit), in a 2-fold dilution series. Plates were maintained for 24 h at 37 °C in 5% CO2. Then 0.5 μCi of [^3H]-hypoxanthine was added to each well, and cultures were incubated for a further 24 h. The growth inhibition was determined by comparison of the radioactivity incorporated into the treated cultures with that into the control cultures, by liquid scintillation counting.

In data set [2] the test system is P. falciparum clone 3D7 (chloroquine sensitive) erythrocytic stages. Put plainly: In vitro assay for P. falciparum blood stages inhibition, clone 3D7. Type of data set: cell-based. As to the method: as §1
Data set [3] deals with P. falciparum (NF 54 strain) hepatic stages. Put plainly: In vitro assay for P. falciparum liver stage inhibition in primary human hepatocytes. Type of data set: cell-based. As to conditions: for IC50 / IC90: 120 h. As to the method: P. yoelii (265 BY strain) and P. falciparum (NF 54 strain) sporozoites were obtained by dissection of infected Anopheles stephensi salivary glands. Primary mouse hepatocytes were isolated as previously described and seeded in eight-well Lab-Tek plastic chamber slides (VWR, Fontenay-sous-Bois, France) previously coated with rat-tail collagen I (BD Biosciences, Le Pont de Claix, France) at a density of 10^5 cells per well. Mouse hepatocytes were cultured at 37 °C in 5% CO2 in William's E medium supplemented with 10% fetal calf serum, 1% L-glutamine, 1% sodium pyruvate, 1% insulin-transferrin-selenium, 1% nonessential amino acids, and 1% penicillin-streptomycin (all from Invitrogen, Cergy-Pontoise, France), for 24 h before inoculation of P. yoelii sporozoites (10^5 per well). Human liver fragments were collected following informed consent provided from patients undergoing a partial hepatectomy. The collection and use of these tissues were undertaken in accordance with French Government ethical regulations. Primary human hepatocytes were isolated from the healthy parts of these liver biopsies as previously described. Human hepatocytes were seeded in LabTek plastic chamber slides coated with collagen, at a density of 1.8 × 10^5 cells per well and cultured at 37 °C in 5% CO2 in the same medium as above, supplemented with 10^−7 M dexamethasone (Sigma) and 2% DMSO after complete cell adherence (12–24 h), for at least 48 h before inoculation of P. falciparum sporozoites (10^5 per well). For a standard assay, the plant extract, the purified compound, or primaquine was solubilized in DMSO, further diluted in culture medium (equal DMSO concentrations of <0.3% per well), and then added to hepatocyte cultures at the time of sporozoite inoculation. Three hours later, after sporozoite penetration into hepatocytes, cultures were washed and further incubated in the presence of the drug. Culture medium containing the appropriate drug concentration was changed daily until 48 h for P. yoelii, or until 5 d for P. falciparum. Parasites were quantified on the last day of incubation. For the in vitro timing experiments, tazopsine treatment of P. yoelii and P. falciparum cultures was undertaken for different periods during the cultivation: 0 h to 3 h, 3 h to 24 h, or 24 h to 48 h after P. yoelii sporozoite inoculation (quantification at 48 h), or 0 h to 2 d, or 3 d to 5 d after P. falciparum sporozoite inoculation (quantification at 5 d). […] Cells were stained with Evans Blue (0.4%), and parasites and cells nuclei were stained with 1 μg/ml of diamidino-phenylindole (DAPI; Sigma). Parasite numbers were counted under a fluorescence microscope with a 25× light microscope objective. IC50 values, the drug concentration at which a 50% reduction in the number of parasites was observed, as compared to the number in the DMSO control cultures, were derived from two independent experiments in which each concentration was tested in triplicate wells.
IC50 and TC50 were calculated by nonlinear regression using four-parameter logistic curves on the SigmaPlot 10.0 software (http://www.systat.com). Each IC50 or TC50 is expressed as a mean between two independent experiments, followed by the standard error of the mean.

The subject of data set [4] is P. yoelii transmissibility (oocysts, sporozoites in A. stephensi). Put plainly: Transmissibility to A. stephensi mosquitoes fed on treated mice. It counts as in vivo. As to conditions: 200 mg/kg, A. stephensi fed on treated mice (unpublished data). As to the method:
In order to test for inhibitory activity against P. yoelii blood stages, four groups of five naive mice were inoculated (intraperitoneally) with 10^6 P. yoelii–infected red blood cells on day 0. Three hours later, one group was treated with tazopsine at 100 mg/kg, another with NCP-tazopsine at 200 mg/kg, whereas the other two groups acted as controls (respectively, water and 10% Tween 80). The doses were repeated daily until day +3. For the group treated with NCP- tazopsine and its control group, the animals were anesthetised 2 h following the administration of the last dose (day +3), and placed for 30 min over a cage with 100 female laboratory-bred A. stephensi. Oocysts were enumerated in 30 mosquito midguts dissected 8 d later, and the number of sporozoites in the salivary glands dissected from 30 insects was ascertained a further 7 d later. All the experiments were performed in two independent duplicates, and enumeration of parasites in blood smears and mosquitoes was conducted in a blinded fashion.

[5] abbreviates: Plasmodium falciparum, Hepatocyte.

Some results are limits rather than exact numbers.

A word on the IC50: it is the concentration that gives 50% inhibition. A lower IC50 goes with higher potency. The IC90 is the point of the concentration-response curve where the effect stands at 90%. The IC80 is the concentration needed for an effect of 80%. Read a low IC80 as an effect from little substance.

As to `COC1=C2[C@@H]3[C@H](O)c4ccc(OC)c(O)c4[C@]2(CCN3C2CCCC2)C[C@H](O)[C@@H]1O` [NCP-tazopsine, N-cyclopentyl-tazopsine], the “effect on multiplication of cultured erythrocytic P. falciparum” value is recorded as “did not have any detectable effect” in data set [1] (FCR3 line, up to concentrations of 600 μM) and “did not have any detectable effect” in data set [2] (3D7 line, up to concentrations of 600 μM). The toxicity to mice result in the data set “Oral toxicity in mice” (up to doses of 400 mg/kg for 4 d) is given as “not found to be toxic”. This compound registered an IC50 in data set [3] (setting [5]) of 42.4 µM. The same compound returned an IC90 in data set [3] (setting [5]) of 95.4 ± 6.6 µM. The “effect on the transmissibility of the parasite” value in data set [4] is “no effect”.
Compound `COC1=C2[C@H]3NCC[C@]2(C[C@H](O)[C@@H]1O)c1c(ccc(OC)c1O)[C@H]3O` [Tazopsine, tazopsine] gave an IC50 in data set [1] (Plasmodium falciparum, FCR3) of 5.7 ± 2.1 µM. Moreover, in “Oral toxicity in mice” (given daily over 4 d), the “oral dose above which toxic to mice” value was “exceeding 100 mg/kg”. In addition, in data set [2] (Plasmodium falciparum, 3D7), the midpoint of inhibition, the IC50, lay at 4.7 ± 0.9 µM. Moreover, in data set [3] (P. falciparum, exposure 0 h-2 d or 3 d-5 d), the “phase of hepatic development most susceptible to inhibition” value was “most susceptible to inhibition during the early stage of trophozoite development”. Moreover, the “concentration at which parasite development fully inhibited” value in data set [3] (P. falciparum-infected primary human hepatocyte cultures) is at least 28 µM. In data set [3] (setting [5]), it took 10 µM to reach the 80% level (IC80), the IC50 turned out to be 4.2 ± 0.1 µM and the IC90 turned out to be 18.3 ± 2.8 µM. In addition, in data set [3] (suboptimal inhibitory concentrations, 5 d), the “size of surviving hepatic parasites versus control cultures” value is “significantly smaller”.

These data come from publication PMC1716192, “A Plant-Derived Morphinan as a Novel Lead Compound Active against Malaria Liver Stages” (PLoS Medicine, 2006).
